Measurements taken from PMC8258866 (Journal of medicinal chemistry, 2020).

Key:
[1] = Kinetic solubility; format: physicochemical; conditions: 27 tested as HCl salt; for solubility: PBS, pH 7.4, solubility (PBS, pH 7.4)
[2] = tested on: MCF7:CFR 3D spheroids; test: 3D-spheroid growth assay; format: cell-based; conditions: 100 nM; cell viability at day 9
[3] = tested on: MCF-7:CFR cells; test: 3 h treatment and washout study in MCF-7:CFR cells; format: cell-based; conditions: media replaced after 3 h, viability after 5 days
[4] = tested on: MCF-7:Tam1 tumors; test: MCF-7:TAM1 xenograft, combination with fulvestrant; format: in vivo, athymic nude mice; conditions: 4 weeks
[5] = tested on: tamoxifen-resistant MCF-7:TAM1 cell-derived xenograft; test: MCF-7:TAM1 xenograft, monotherapy; format: in vivo
[6] = Mouse pharmacokinetics; format: in vivo, CD1 mice; conditions: iv 5 mg/kg, mice, HCl salt
[7] = molecular target: BET family proteins; test: BROMOscan bromodomain profiling, BET family; format: binding; conditions: across BET family proteins
[8] = tested on: MCF-7:CFR cells; test: Cell growth assay in fulvestrant-resistant MCF-7:CFR 2D cultures; format: cell-based; conditions: MCF-7:CFR growth inhibition
[9] = tested on: MCF-7:WS8, MCF-7:5C, MCF-7:TAM1, T47D, T47D/TDG, MCF-7:CPR, MCF-7:CFR cells; test: Cell growth assay across ER+ breast cancer cell lines; format: cell-based; conditions: read-out: IC50 across all cell lines

CC(=O)[C@H]1CC[C@H]2[C@@H]3CCC4=CC(=O)CC[C@]4(C)[C@H]3CC[C@]12C [progesterone, reference compound]
solubility [1]: 22.4 µM

C[C@]12CC[C@@H]3c4ccc(O)cc4C[C@@H](CCCCCCCCC[S+]([O-])CCCC(F)(F)C(F)(F)F)[C@H]3[C@@H]1CC[C@@H]2O (stereo partly shown) [fulvestrant]
effect on MCF-7:CFR 3D spheroid growth/viability [2]: Neither 4-hydroxytamoxifen (4OHT) nor fulvestrant inhibited MCF-7:CFR cell growth

Cc1sc2c(c1C)C(c1ccc(Cl)cc1)=N[C@@H](CC(=O)OC(C)(C)C)c1nnc(C)n1-2 [Compound 1, reference compound]
efficacy after drug washout [3]: no significant efficacy at <300 nM
effect on MCF-7:CFR 3D spheroid growth/viability [2]: significantly inhibited growth

CC/C(=C(\c1ccc(O)cc1)c1ccc(OCCN(C)C)cc1)c1ccccc1 [4-hydroxytamoxifen]
effect on MCF-7:CFR 3D spheroid growth/viability [2]: Neither 4-hydroxytamoxifen (4OHT) nor fulvestrant inhibited MCF-7:CFR cell growth

CCNC(=O)C[C@@H]1N=C(c2ccc(Cl)cc2)c2cc(OC)ccc2-n2c(C)nnc21 [Compound 2, reference compound]
tumor growth inhibition versus vehicle control ([4]; 50 mg/kg po in combination with fulvestrant sc 1 (mg/mouse)/week): comparable and significant tumor growth inhibition

CCS(=O)(=O)Nc1cc(-c2cn(C)c3c(=O)[nH]ccc23)cc2c1ccn2C(C)(c1ccccn1)c1ccccn1 [Compound 27, N-(1-(1,1-Di(pyridin-2-yl)ethyl)-6-(1-methyl-7-oxo-6,7-dihydro-1H-pyrrolo[2,3-c]pyridin-3-yl)-1H-indol-4-yl)-ethanesulfonamide]
efficacy after drug washout [3]: only slightly diminished
solubility (PBS, pH 7.4) [1]: 73.43 μM
solubility [1]: 73.4 µM
effect on animal body weight ([5]; 50 (mg/kg)/day po, 4 weeks): without any effect on animal body weight
overt signs of toxicity ([5]; once daily administration for 4 weeks): no overt signs of toxicity
tumor growth inhibition versus vehicle control ([4]; 30 mg/kg po in combination with fulvestrant sc 1 (mg/mouse)/week): comparable and significant tumor growth inhibition
Cl [6]: 25.5 (mL/min)/kg
Kd [7]: < 1 nM
effect on MCF-7:CFR 3D spheroid growth/viability [2]: complete loss of spheroid viability
cellular potency over JQ1 [8]: > 100 fold
IC50 [9]: < 10 nM

COc1nnc2ccc(N3CCC(c4ccc(OCCN5CCN(C)C(=O)[C@H]5C)cc4)CC3)nn12 [Compound 5, (3R)-4-[2-[4-[1-(3-Methoxy-[1,2,4]-triazolo[4,3-b]pyridazin-6-yl)-4-piperidyl]phenoxy]ethyl]-1,3-dimethyl-piperazin-2-one]
effect on MCF-7:CFR 3D spheroid growth/viability [2]: significantly inhibited growth

CC/C(=C(\c1ccccc1)c1ccc(OCCN(C)C)cc1)c1ccccc1 [tamoxifen, reference compound]
effect on tumor growth relative to vehicle control ([5]; 1.5 mg/mouse/day po, day 28): no significant effect on tumor growth
